Values quoted from earlier work in patent publication US7429390B2, “Stable pharmaceutical compositions, processes for making the same and methods of their use” (priority 2007, dated 2008).
Like-named read-outs stand apart in the source and are kept apart here.

## CNC(=C[N+](=O)[O-])NCCSCc1ccc(CN(C)C)o1 [compound of Formula I, N-[2-[[[5-(dimethylamino)methyl-2-furanyl]methyl]thio]ethyl]-N′-methyl-2-nitro-1,1-ethenediamine]
GERD, after starting therapy with 150 mg b.i.d.
  time to symptomatic relief: ≤ 24 h
Endoscopically diagnosed erosive esophagitis, therapy initiation with 150 mg b.i.d.
  time to symptomatic relief of heartburn: ≤ 24 h
short-term treatment of active duodenal ulcer
  time in which most patients heal: ≤ 4 weeks
short-term treatment of active, benign gastric ulcer
  time in which most patients heal: ≤ 6 weeks
